Data published in patent publication US10800746B2, “Oxoalkyl-substituted phenyltriazole derivatives and uses thereof” (BAYER PHARMA AKTIENGESELLSCHAFT, priority 2016, dated 2020).

How the values were obtained:
Wistar rats = assay: Diuresis investigations in conscious rats kept in metabolism cages; type: in vivo; settings: rat
Description: Wistar rats (220-450 g body weight) are kept with free access to feed (Altromin) and drinking water. During the experiment, the animals are kept with free access to drinking water for 4 to 8 or up to 24 hours individually in metabolism cages suitable for rats of this weight class (Tecniplast Deutschland GmbH, D-82383 Hohenpeißenberg). At the beginning of the experiment, the animals are administered the test substance in a volume of 1 to 3 ml/kg body weight of a suitable solvent by means of gavage into the stomach. Control animals only receive solvent. Controls and substance tests are carried out in parallel on the same day. Control groups and substance-dose groups each consist of 4 to 8 animals. During the experiment, the urine excreted by the animals is collected continuously in a receiver at the base of the cage. The volume of urine per time unit is determined separately for each animal, and the concentration of urinary electrolytes is measured by standard methods of flame photometry. Before the beginning of the experiment, the body weight of the individual animals is determined.

human V1a receptor = human V1a receptor (Homo sapiens (Human), UniProt P37288); assay: Cellular in vitro assay for vasopressin receptor activity, V1a receptor cell line (aequorin luminescence); type: cell-based; settings: CHO cell line transfected with human V1a receptor; [Arg8]-vasopressin at EC50; read-out: IC50 hV1a
Sequence of human V1a receptor (P37288 whole entry): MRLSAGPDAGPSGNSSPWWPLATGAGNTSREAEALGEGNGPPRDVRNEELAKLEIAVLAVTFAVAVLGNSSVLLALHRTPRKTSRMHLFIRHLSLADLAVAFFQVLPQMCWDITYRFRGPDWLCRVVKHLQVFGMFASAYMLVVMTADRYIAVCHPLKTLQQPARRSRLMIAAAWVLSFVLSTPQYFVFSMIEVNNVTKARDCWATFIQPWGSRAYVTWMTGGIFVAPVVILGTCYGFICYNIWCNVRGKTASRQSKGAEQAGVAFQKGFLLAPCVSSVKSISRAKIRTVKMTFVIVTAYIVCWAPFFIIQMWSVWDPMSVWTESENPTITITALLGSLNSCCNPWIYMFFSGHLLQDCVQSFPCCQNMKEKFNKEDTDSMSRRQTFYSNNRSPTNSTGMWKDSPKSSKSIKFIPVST
Description: (§1) The identification of agonists and antagonists of the V1a and V2 vasopressin receptors from humans, rats and dogs as well as the quantification of the activity of the compounds of the invention is carried out using recombinant cell lines. These cell lines originally derive from a hamster's ovary epithelial cell (Chinese Hamster Ovary, CHO K1, ATCC: American Type Culture Collection, Manassas, Va. 20108, USA). The test cell lines constitutively express the human, rat or dog V1a or V2 receptors. In case of the Gαq-coupled V1a receptors, cells are also stably transfected with a modified form of the calcium-sensitive photoproteins aequorin (human and rat V1a) or obelin (dog V1a), which, after reconstitution with the cofactor coelenterazine, emit light when there are increases in free calcium concentrations [Rizzuto R, Simpson A W, Brini M, Pozzan T, Nature 358, 325-327 (1992); Illarionov B A, Bondar V S, Illarionova V A, Vysotski E S, Gene 153 (2), 273-274 (1995)]. The resulting vasopressin receptor cells react to stimulation of the recombinantly expressed V1a receptors by intracellular release of calcium ions, which can be quantified by the resulting photoprotein luminescence. The Gs-coupled V2 receptors are stably transfected into cell lines expressing the gene for firefly luciferase under control of a CRE-responsible promoter. Activation of V2 receptors induces the activation of the CRE-responsive promoter via cAMP increase, thereby inducing the expression of firefly luciferase. The light emitted by photoproteins of V1a cell lines as well as the light emitted by firefly luciferase of V2 cell lines corresponds to the activation or inhibition of the respective vasopressin receptor. The bioluminescence of the cell lines is detected using a suitable luminometer [Milligan G, Marshall F, Rees S, Trends in Pharmacological Sciences 17, 235-237 (1996)].
On the day before the assay, the cells are plated out in culture medium (DMEM/F12, 2% FCS, 2 mM glutamine, 10 mM HEPES, 5 μg/ml coelenterazine) in 384-well microtiter plates and kept in a cell incubator (96% humidity, 5% v/v CO2, 37° C.). On the day of the assay, test compounds in various concentrations are placed for 10 minutes in the wells of the microtiter plate before the agonist [Arg^8]-vasopressin at EC50 concentration is added. The resulting light signal is measured immediately in the luminometer.

human V2 receptor = human V2 receptor (Homo sapiens (Human), UniProt P30518); assay: Cellular in vitro assay for vasopressin receptor activity, V2 receptor cell line (CRE-luciferase); type: cell-based; settings: CHO cell line transfected with human V2 receptor; [Arg8]-vasopressin at EC50; read-out: IC50 hV2
Sequence of human V2 receptor (P30518 whole entry): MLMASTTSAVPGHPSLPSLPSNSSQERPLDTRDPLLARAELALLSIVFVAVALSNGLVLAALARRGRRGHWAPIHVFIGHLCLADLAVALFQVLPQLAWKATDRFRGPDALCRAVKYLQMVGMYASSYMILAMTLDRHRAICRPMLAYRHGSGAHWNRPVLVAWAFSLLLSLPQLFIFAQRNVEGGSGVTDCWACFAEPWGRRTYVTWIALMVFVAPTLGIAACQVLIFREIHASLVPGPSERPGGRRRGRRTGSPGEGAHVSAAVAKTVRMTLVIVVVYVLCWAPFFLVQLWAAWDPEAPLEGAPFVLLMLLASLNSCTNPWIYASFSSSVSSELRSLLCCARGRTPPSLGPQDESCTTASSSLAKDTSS
Description: as §1
On the day before the assay, the cells are plated out in culture medium (DMEM/F12, 2% FCS, 2 mM glutamine, 10 mM HEPES) in 384-well microtiter plates and kept in a cell incubator (96% humidity, 5% v/v CO2, 37° C.). […] Upon addition of the cell lysis reagent Triton™ and the substrate luciferin, luminescence of firefly luciferase is measured in a luminometer.

Row | Compound | Urinary volume [% vs. control = 100%] (Wistar rats; 0.3 mg/kg p.o.) | Urinary volume [% vs. control = 100%] (Wistar rats; 3.0 mg/kg p.o.) | IC50 (human V1a receptor) | IC50 (human V2 receptor)
1 | CC(=O)c1nc(Cn2nc(-c3ccc(Cl)cc3)n(C[C@H](O)C(F)(F)F)c2=O)nn1-c1cccc(Cl)c1 [Example 1, 2-{[5-Acetyl-1-(3-chlorophenyl)-1H-1,2,4-triazol-3-yl]methyl}-5-(4-chlorophenyl)-4-[(2S)-3,3,3-trifluoro-2-hydroxypropyl]-2,4-dihydro-3H-1,2,4-triazol-3-one] | 344 % vs. control = 100% | 554 % vs. control = 100% | 34.5 nM | 2.3 nM
2 | CC(=O)c1nc(Cn2nc(-c3ccc(Cl)cc3)n(C[C@H](O)C(F)(F)F)c2=O)nn1-c1cccc(F)c1 [Example 2, 2-{[5-Acetyl-1-(3-fluorophenyl)-1H-1,2,4-triazol-3-yl]methyl}-5-(4-chlorophenyl)-4-[(2S)-3,3,3-trifluoro-2-hydroxypropyl]-2,4-dihydro-3H-1,2,4-triazol-3-one] | – | – | 7.5 nM | 6.2 nM
3 | CC(=O)c1nc(Cn2nc(-c3ccc(Cl)cc3)n(C[C@H](O)C(F)(F)F)c2=O)nn1-c1ccccc1Cl [Example 3, 2-{[5-Acetyl-1-(2-chlorophenyl)-1H-1,2,4-triazol-3-yl]methyl}-5-(4-chlorophenyl)-4-[(2S)-3,3,3-trifluoro-2-hydroxypropyl]-2,4-dihydro-3H-1,2,4-triazol-3-one] | 172 % vs. control = 100% | 679 % vs. control = 100% | 0.5 nM | 4.9 nM
4 | CC(=O)c1nc(Cn2nc(-c3ccc(Cl)cc3)n(CC(=O)C(F)(F)F)c2=O)nn1-c1cccc(Cl)c1 [Example 4, 2-{[5-Acetyl-1-(3-chlorophenyl)-1H-1,2,4-triazol-3-yl]methyl}-5-(4-chlorophenyl)-4-(3,3,3-trifluoro-2-oxopropyl)-2,4-dihydro-3H-1,2,4-triazol-3-one] | – | – | 123 nM | 7.7 nM
5 | CC(O)c1nc(Cn2nc(-c3ccc(Cl)cc3)n(CC(=O)C(F)(F)F)c2=O)nn1-c1cccc(Cl)c1 [Example 5, 5-(4-Chlorophenyl)-2-({1-(3-chlorophenyl)-5-[(1S,R)-1-hydroxyethyl]-1H-1,2,4-triazol-3-yl}methyl)-4-(3,3,3-trifluoro-2-oxopropyl)-2,4-dihydro-3H-1,2,4-triazol-3-one] | – | – | 55 nM | 2.8 nM
6 | O=c1n(Cc2nnc(-c3ccccc3Cl)[nH]2)nc(-c2ccc(Cl)cc2)n1C[C@H](O)C(F)(F)F [Example No. WO 2011/104322 54] | 85 % vs. control = 100% | 188 % vs. control = 100% | – | –
7 | COC(=O)Cn1nc(-c2ccccc2Cl)nc1Cn1nc(-c2ccc(Cl)cc2)n(C[C@H](O)C(F)(F)F)c1=O [Example No. WO 2011/104322 56] | 128 % vs. control = 100% | 85 % vs. control = 100% | 1.3 nM | 6.7 nM
8 | O=C(O)Cn1nc(Cn2nc(-c3ccc(Cl)cc3)n(C[C@H](O)C(F)(F)F)c2=O)nc1-c1ccccc1Cl [Example No. WO 2011/104322 60] | 96 % vs. control = 100% | 84 % vs. control = 100% | – | –
9 | NC(=O)Cn1nc(Cn2nc(-c3ccc(Cl)cc3)n(C[C@H](O)C(F)(F)F)c2=O)nc1-c1ccccc1Cl [Example No. WO 2011/104322 68] | 87 % vs. control = 100% | 121 % vs. control = 100% | – | –
10 | O=c1n(Cc2cn(-c3ccccc3Cl)nn2)nc(-c2ccc(Cl)cc2)n1C[C@H](O)C(F)(F)F [Example No. WO 2011/104322 101] | 111 % vs. control = 100% | 255 % vs. control = 100% | – | –
11 | O=c1n(Cc2cn(-c3ccccc3Cl)cn2)nc(-c2ccc(Cl)cc2)n1C[C@H](O)C(F)(F)F [Example No. WO 2011/104322 110] | 114 % vs. control = 100% | 274 % vs. control = 100% | – | –
